Consider one compound from US11497766B2, “Compositions and methods for treating or preventing diseases associated with oxidative stress” (CXL OPHTHALMICS, LLC, priority 2012, dated 2022).

In this assay the test system is eyes. The assay is described as follows: Corneal collagen cross-linking with riboflavin and sodium iodide; post-operative corneal haze. The settings on record: corneal collagen cross-linking utilizing 0.5% riboflavin and 0.015% (1 mmol) sodium iodide; over 200 eyes; compared to historical cross-linking procedures performed without sodium iodide. It is filed as in vivo. The method, then: Corneal collagen cross-linking utilizing 0.5% riboflavin and 0.015% (1 mmol) sodium iodide was performed in over 200 eyes.

Take `[I-].[Na+]` [sodium iodide]: the Post-operative corneal haze result is on record as “minimal”.
